Numbers after ± are expanded uncertainties.
Assay: mn = molality of the nth substance listed, in mol/kg
Settings: 101.33 kPa, Liquid

CC(C)C[C@H](NC(=O)CN)C(=O)O [glycyl-L-leucine] + O
mass density (298.15 K, m1 = 0.01944): 997.991 ± 0.14 kg/m3 | mass density (298.15 K, m1 = 0.02958): 998.487 ± 0.14 kg/m3 | mass density (298.15 K, m1 = 0.0395): 998.954 ± 0.14 kg/m3 | mass density (298.15 K, m1 = 0.04928): 999.428 ± 0.14 kg/m3 | mass density (298.15 K, m1 = 0.057): 999.792 ± 0.13 kg/m3 | mass density (298.15 K, m1 = 0.07128): 1000.49 ± 0.14 kg/m3 | mass density (298.15 K, m1 = 0.09125): 1001.44 ± 0.14 kg/m3 | mass density (298.15 K, m1 = 0.1001): 1001.85 ± 0.14 kg/m3 | mass density (303.15 K, m1 = 0.01944): 996.492 ± 0.14 kg/m3 | mass density (303.15 K, m1 = 0.02958): 996.981 ± 0.14 kg/m3 | mass density (303.15 K, m1 = 0.0395): 997.455 ± 0.14 kg/m3 | mass density (303.15 K, m1 = 0.04928): 997.926 ± 0.14 kg/m3 | mass density (303.15 K, m1 = 0.057): 998.294 ± 0.14 kg/m3 | mass density (303.15 K, m1 = 0.07128): 998.981 ± 0.14 kg/m3 | mass density (303.15 K, m1 = 0.09125): 999.94 ± 0.13 kg/m3 | mass density (303.15 K, m1 = 0.1001): 1000.35 ± 0.13 kg/m3 | mass density (308.15 K, m1 = 0.01944): 994.971 ± 0.14 kg/m3 | mass density (308.15 K, m1 = 0.02958): 995.453 ± 0.14 kg/m3 | mass density (308.15 K, m1 = 0.0395): 995.927 ± 0.14 kg/m3 | mass density (308.15 K, m1 = 0.04928): 996.398 ± 0.14 kg/m3 | mass density (308.15 K, m1 = 0.057): 996.773 ± 0.14 kg/m3 | mass density (308.15 K, m1 = 0.07128): 997.443 ± 0.14 kg/m3 | mass density (308.15 K, m1 = 0.09125): 998.415 ± 0.14 kg/m3 | mass density (308.15 K, m1 = 0.1001): 998.822 ± 0.14 kg/m3 | mass density (313.15 K, m1 = 0.01944): 993.308 ± 0.14 kg/m3 | mass density (313.15 K, m1 = 0.02958): 993.787 ± 0.14 kg/m3 | mass density (313.15 K, m1 = 0.0395): 994.248 ± 0.14 kg/m3 | mass density (313.15 K, m1 = 0.04928): 994.705 ± 0.14 kg/m3 | mass density (313.15 K, m1 = 0.057): 995.068 ± 0.14 kg/m3 | mass density (313.15 K, m1 = 0.07128): 995.712 ± 0.14 kg/m3 | mass density (313.15 K, m1 = 0.09125): 996.655 ± 0.14 kg/m3 | mass density (313.15 K, m1 = 0.1001): 997.07 ± 0.14 kg/m3

NCC(=O)NCC(=O)O [glycylglycine] + O
mass density (298.15 K, m1 = 0.0294): 998.688 ± 0.14 kg/m3 | mass density (298.15 K, m1 = 0.04517): 999.547 ± 0.14 kg/m3 | mass density (298.15 K, m1 = 0.06076): 1000.42 ± 0.14 kg/m3 | mass density (298.15 K, m1 = 0.07901): 1001.42 ± 0.14 kg/m3 | mass density (298.15 K, m1 = 0.1051): 1002.86 ± 0.14 kg/m3 | mass density (298.15 K, m1 = 0.1496): 1005.27 ± 0.14 kg/m3 | mass density (298.15 K, m1 = 0.2003): 1007.99 ± 0.15 kg/m3 | mass density (298.15 K, m1 = 0.257): 1011.04 ± 0.15 kg/m3 | mass density (298.15 K, m1 = 0.3022): 1013.4 ± 0.16 kg/m3 | mass density (303.15 K, m1 = 0.0294): 997.189 ± 0.14 kg/m3 | mass density (303.15 K, m1 = 0.04517): 998.051 ± 0.14 kg/m3 | mass density (303.15 K, m1 = 0.06076): 998.909 ± 0.14 kg/m3 | mass density (303.15 K, m1 = 0.07901): 999.898 ± 0.13 kg/m3 | mass density (303.15 K, m1 = 0.1051): 1001.33 ± 0.14 kg/m3 | mass density (303.15 K, m1 = 0.1496): 1003.76 ± 0.14 kg/m3 | mass density (303.15 K, m1 = 0.2003): 1006.46 ± 0.14 kg/m3 | mass density (303.15 K, m1 = 0.257): 1009.51 ± 0.15 kg/m3 | mass density (303.15 K, m1 = 0.3022): 1011.87 ± 0.15 kg/m3 | mass density (308.15 K, m1 = 0.0294): 995.661 ± 0.14 kg/m3 | mass density (308.15 K, m1 = 0.04517): 996.52 ± 0.14 kg/m3 | mass density (308.15 K, m1 = 0.06076): 997.375 ± 0.14 kg/m3 | mass density (308.15 K, m1 = 0.07901): 998.349 ± 0.14 kg/m3 | mass density (308.15 K, m1 = 0.1051): 999.766 ± 0.14 kg/m3 | mass density (308.15 K, m1 = 0.1496): 1002.15 ± 0.14 kg/m3 | mass density (308.15 K, m1 = 0.2003): 1004.89 ± 0.14 kg/m3 | mass density (308.15 K, m1 = 0.257): 1007.83 ± 0.15 kg/m3 | mass density (308.15 K, m1 = 0.3022): 1010.28 ± 0.15 kg/m3 | mass density (313.15 K, m1 = 0.0294): 994.003 ± 0.14 kg/m3 | mass density (313.15 K, m1 = 0.04517): 994.856 ± 0.14 kg/m3 | mass density (313.15 K, m1 = 0.06076): 995.681 ± 0.14 kg/m3 | mass density (313.15 K, m1 = 0.07901): 996.677 ± 0.14 kg/m3 | mass density (313.15 K, m1 = 0.1051): 998.065 ± 0.14 kg/m3 | mass density (313.15 K, m1 = 0.1496): 1000.44 ± 0.14 kg/m3 | mass density (313.15 K, m1 = 0.2003): 1003.12 ± 0.14 kg/m3 | mass density (313.15 K, m1 = 0.257): 1006.06 ± 0.14 kg/m3 | mass density (313.15 K, m1 = 0.3022): 1008.41 ± 0.15 kg/m3

O [water] + NCC(=O)NCC(=O)O
mass density (303.15 K, m2 = 0): 995.55 ± 0.14 kg/m3 | mass density (313.15 K, m2 = 0): 992.392 ± 0.14 kg/m3

CC(C)[C@H](NC(=O)CN)C(=O)O [glycyl-L-valine] + O
mass density (298.15 K, m1 = 0.02257): 998.221 ± 0.14 kg/m3 | mass density (298.15 K, m1 = 0.03982): 999.108 ± 0.14 kg/m3 | mass density (298.15 K, m1 = 0.06066): 1000.17 ± 0.13 kg/m3 | mass density (298.15 K, m1 = 0.07858): 1001.09 ± 0.14 kg/m3 | mass density (298.15 K, m1 = 0.1017): 1002.26 ± 0.14 kg/m3 | mass density (298.15 K, m1 = 0.1513): 1004.75 ± 0.14 kg/m3 | mass density (298.15 K, m1 = 0.1791): 1006.13 ± 0.14 kg/m3 | mass density (298.15 K, m1 = 0.2026): 1007.28 ± 0.15 kg/m3 | mass density (303.15 K, m1 = 0.02257): 996.723 ± 0.14 kg/m3 | mass density (303.15 K, m1 = 0.03982): 997.606 ± 0.14 kg/m3 | mass density (303.15 K, m1 = 0.06066): 998.679 ± 0.14 kg/m3 | mass density (303.15 K, m1 = 0.07858): 999.59 ± 0.13 kg/m3 | mass density (303.15 K, m1 = 0.1017): 1000.76 ± 0.14 kg/m3 | mass density (303.15 K, m1 = 0.1513): 1003.24 ± 0.14 kg/m3 | mass density (303.15 K, m1 = 0.1791): 1004.65 ± 0.14 kg/m3 | mass density (303.15 K, m1 = 0.2026): 1005.79 ± 0.14 kg/m3 | mass density (308.15 K, m1 = 0.02257): 995.192 ± 0.14 kg/m3 | mass density (308.15 K, m1 = 0.03982): 996.067 ± 0.14 kg/m3 | mass density (308.15 K, m1 = 0.06066): 997.129 ± 0.14 kg/m3 | mass density (308.15 K, m1 = 0.07858): 998.03 ± 0.14 kg/m3 | mass density (308.15 K, m1 = 0.1017): 999.181 ± 0.14 kg/m3 | mass density (308.15 K, m1 = 0.1513): 1001.63 ± 0.14 kg/m3 | mass density (308.15 K, m1 = 0.1791): 1003.01 ± 0.14 kg/m3 | mass density (308.15 K, m1 = 0.2026): 1004.11 ± 0.14 kg/m3 | mass density (313.15 K, m1 = 0.02257): 993.535 ± 0.14 kg/m3 | mass density (313.15 K, m1 = 0.03982): 994.395 ± 0.14 kg/m3 | mass density (313.15 K, m1 = 0.06066): 995.435 ± 0.14 kg/m3 | mass density (313.15 K, m1 = 0.07858): 996.317 ± 0.14 kg/m3 | mass density (313.15 K, m1 = 0.1017): 997.462 ± 0.14 kg/m3 | mass density (313.15 K, m1 = 0.1513): 999.879 ± 0.14 kg/m3 | mass density (313.15 K, m1 = 0.1791): 1001.22 ± 0.14 kg/m3 | mass density (313.15 K, m1 = 0.2026): 1002.29 ± 0.14 kg/m3

From the NIST ThermoML archive (doi:10.1021/je100068y)
